Measurements from US9023998B2, “Near infrared fluorogen and fluorescent activating proteins for in vivo imaging and live-cell biosensing” (Carnegie Mellon University, priority 2013, dated 2015).

Columns and labels:
mL9.5 (SEQ. ID. NO. 21) = assay: Fluorogen activation by purified monomeric FAP mL9.5 (spectra); format: biochemical; details: purified protein, about 300 nM fluorogen, PBS pH 7.4
Description: While the peptide linker that joins the VL units in dL9.2 (SEQ. ID. NO. 2) and dL9.5 (SEQ. ID. NO. 3) enhance fluorogen binding affinity and binding rate by reducing the entropic cost of assembly around the fluorogen, the linker is not strictly necessary for fluorogenic activation. […] In panels C and D, corresponding spectra from mL9.5:SKC602 (SEQ. ID. NO. 21:SKC602) and mL9.5:SKC728 (SEQ. ID. NO. 21:SKC728) fluoromodules are shown. Spectra were obtained using a Quantamaster™ fluorometer (PTI) equipped with dual monochromators on both excitation and emission light paths.
To facilitate ligase-dependent cloning methods, the above procedure was repeated for dL9.5 (SEQ. ID. NO. 6), using otherwise identical primers that appended BspEI (TCCGGA) (SEQ. ID. NO. 25) and BamHI (GGATCC) (SEQ. ID. NO. 26) sites directly at the 5′ and 3′ termini, respectively, of the dL9.5 gene (SEQ. ID. NO. 6). The resulting plasmid, designated pPNL9z-dL9.5, could be digested with BspEI (SEQ. ID. NO. 25) and BamHI (SEQ. ID. NO. 26) to produce a yeast expression vector backbone capable of receiving inserts with like-digested termini. […]

dL9.2 (SEQ. ID. NO. 2) = assay: Binding/activation of fluorogen by FAP dL9.2
Description: A precursor FAP designated dL9 (SEQ. ID. NO. 1) was designed using the coding sequence of the light-chain from HL9-MG, a scFv originally isolated for binding and fluorescence activation of malachite green-based fluorogenic dyes (Szent-Gyorgyi, et al. 2008, incorporated herein by reference). This FAP was assembled as a tandem dimer of light chains by attaching a glycine-serine linker and a codon-optimized copy of the light chain gene to the original light chain via PCR. […] Mutagenesis and library generation by electroporation was performed in a previously described manner (Chao, et al., Isolating and engineering human antibodies using yeast surface display, Nature Protocols, vol. 1, No. 2, pp. 755-768 (2006)), but screening employed the protein secretion vector pPNL9, rather than the surface display vector pPNL6: Individual S. cerevisiae expressing FAP mutants were incubated with cell-permeant fluorogen MG-ester and the brightest activators were cloned via flow cytometry. Clones were induced for FAP production in tryptone-based protein secretion media (Szent-Gyorgyi, et al. 2008) and media was screened for activation of MG-ester after five days of induction at 20° C. This screen yielded dL9.2 (SEQ. ID. NO. 2): a bright, stable FAP amenable to high levels of expression. […]

CN(C)c1ccc(/C=C/C(=C2C=CC(=[N+](C)C)C=C2)c2ccc(N(C)C)cc2)cc1 [SKC602, (E)-N-(4-(1,3-bis(4-(dimethylamino)phenyl)allylidene)cyclohexa-2,5-dien-1-ylidene)-N-methylmethanaminium]
Induction of NIR fluorescence by mL9.5 (mL9.5 (SEQ. ID. NO. 21)): induce NIR fluorescence
Binding and fluorescence activation by dL9.2 (dL9.2 (SEQ. ID. NO. 2)): bind and activate fluorescence

CN(C)c1ccc(C(/C=C/c2ccc(N(C)CCCCC(=O)NC(CCS(=O)(=O)O)C(=O)O)cc2)=C2C=CC(=[N+](C)C)C=C2)cc1 (stereo not shown) [SKC728]
Induction of NIR fluorescence by mL9.5 (mL9.5 (SEQ. ID. NO. 21)): induce NIR fluorescence
Binding and fluorescence activation by dL9.2 (dL9.2 (SEQ. ID. NO. 2)): bind
